For series [1], the target named is T1, NDM-1 (Klebsiella pneumoniae, UniProt C7C422). The series can be described thus: Inhibition of NDM-1 hydrolytic activity, enzymatic assay with meropenem. The series is classed as biochemical. As to conditions: for Restoration of NDM-1 activity by zinc supplementation: 1-fold or 10-fold concentration of Zn^2+; for Inhibitory mode: Lineweaver-Burk plot.
The subject of a further series is EC1864. The series can be described thus: Sepsis model. To be noted: compound oral + meropenem i.v., all 10 mg/kg once daily. The series is classed as in vivo, ICR mice.
The subject of series [2] is NDM-1 positive bacteria EC1864. The series can be described thus: Checkerboard assay with meropenem. Type of series: cell-based, Escherichia coli. To be noted: meropenem alone […].
For series [3], the target named is T1, NDM-1. As to conditions: cited from earlier work.
Substrate in series [4]: C[C@@H](O)[C@H]1C(=O)N2C(C(=O)O)=C(S[C@@H]3CN[C@H](C(=O)N(C)C)C3)[C@H](C)[C@H]12
The series can be described thus: purified protein, by the assay type. Type of series: biochemical. To be noted: other: meropenem as substrate of recombinant NDM-1; pH 7.5.

For the molecule `O=C(O)CN(CCN(CC(=O)O)CC(=O)O)CC(=O)O` [EDTA], on NDM-1 [1], the “Restoration of NDM-1 activity by zinc supplementation” value was “partially or fully restored” and the Inhibitory mode result is recorded as “non-competitive inhibition”.

Turning to `O=[N+]([O-])c1ccc(O)c2ncccc12` [nitroxoline, 5-nitro-8-hydroxyquinoline], in the series with EC1864, the “Survival rate of sepsis mice, combination therapy with meropenem” value was “did not exhibit a protective effect”. Also, in series [2], the “MIC value of meropenem with sub-MIC concentration of the compound” value was 8 µg/mL. Further, at NDM-1 [1], the “Restoration of NDM-1 activity by zinc supplementation” value is listed as “partially or fully restored” and the Inhibitory mode entry is “non-competitive inhibition”. Besides, on NDM-1 [3], the “Concentration that completely inhibited NDM-1 activity” value is reported as 30 µM.

B1: recombinant NDM-1 (Klebsiella pneumoniae) (protein)
chain: MHHHHHHMPGEIRPTIGQQMETGDQRFGDLVFRQLAPNVWQHTSYLDMPGFGAVASNGLIVRDGGRVLVVDTAWTDDQTAQILNWIKQEINLPVALAVVTHAHQDKMGGMDALHAAGIATYANALSNQLAPQEGMVAAQHSLTFAANGWVEPATAPNFGPLKVFYPGPGHTSDNITVGIDGTDIAFGGCLIKDSKAKSLGNLGDADTEHYAASARAFGAAFPKASMIVMSHSAPDSRAAITHTARMADKLR
The Km is the substrate concentration at which the rate is half of its maximum. As usually defined, the kcat is the maximal rate divided by the concentration of active sites. For B1, in series [4], the Km was 54.72 µM and the kcat worked out at 11.71 s⁻¹.

Source of the values: PMC10829846 (Emerging Microbes & Infections, 2023).
